Square brackets hold non-standard residues; d marks the D form. Peptide text beside a SMILES is read from it. * marks the point of attachment. X1 = O=C(O)c1cc(NC(=S)*)ccc1-c1c2ccc(=O)cc-2oc2cc(O)ccc12; aIle = CC[C@@H](C)[C@H](N)C(=O)O; dCit = NC(=O)NCCC[C@@H](N)C(=O)O; X2 = N=C(N)c1ccc(C(=O)*)cc1; Dap = NC[C@H](N)C(=O)O; Ahx = NCCCCCC(=O)O; βAla = NCCC(=O)O
What was measured:
[1] = tested on: HeLa cells; experiment: Cell uptake of FITC-peptides by flow cytometry; assay type: cell-based; details: for time of maximum uptake: 37° C., 1 hr vs 4 hr
Description: (§2) HeLa and U2OS cells were maintained in medium consisting of Dulbecco's modified Eagle's medium (DMEM), 10% FBS, 1% L-Glutamine and 1% penicillin/streptomycin at pH 7.4. […] Cells were cultured in a humidified incubator at 37° C. with 5% CO2 atmosphere.
HeLa or U2OS cells were cultured in 24 well plates (4.5×10^5 cells per well) for 24 h. On the day of the experiment, the cells were incubated with 5 μM FITC-peptide in DMEM with 10% FBS at 37° C. or 4° C. for required time. The media was then removed and wells were washed with PBS (2×500 μL per well) and then detached from the plate with TrypLE Xpress (500 μL per well). PBS containing 2% bovine serum albumin (500 μL) was added to each well and cells transferred to 5 mL polystyrene FACS tubes. Cells were centrifuged (5 min, 5000 rpm) and washed with PBS containing 2% bovine serum albumin (2×500 μL) before being suspended in PBS containing 2% bovine serum albumin (1.00 mL per FACS tube).
(§3) Cells were finally analysed on a Thermo fisher Attune NxT flow cytometer with laser excitation/emission set at 490 nm/519 nm and a flow rate of 200 μL min^−1. Flow cytometry data was analysed using FlowJo software with gating set at a range of 51K-285K side scatter and 251K-815K for forward scatter variance for every sample. Median fluorescence intensity values were calculated from the gating range using FlowJo.
(§4) Median fluorescence values reported were normalised by subtracting average background fluorescence at 490 nm/519 nm of a set of untreated cells (ran with every experiment) from the value of each FITC labelled peptide.

[2] = tested on: HeLa cells; experiment: Cellular distribution by confocal microscopy; assay type: cell-based; details: 5 μM fluorescein-tagged CPP, 4 h
Description: HeLa cells were cultured in 8 well plates (Ibidi plates) (3.5×10^4 cells per well) for 24 h. […] After 3.5 h incubation, Hoescht 33258 was added at a concentration of 5.6 μM and cells incubated at 37° C. for the final 0.5 h. Cells were removed from the incubator and media removed. Each well was then washed with serum and phenol red free media (2×200 μL) then incubated with 4% formaldehyde in PBS (200 μL) for 20 min at room temperature. After incubation the 4% formaldehyde solution was removed and PBS (200 μL) added to each well. The cells were then imaged using a Leica S8 confocal microscope. Excitation/emission was set at 352 nm/461 nm for Hoescht 33258 imaging and 495 nm/519 nm for FITC labelled peptides. Images were processed using ImageJ software. Images were ‘rolling ball’ averaged across the set for each channel to remove background fluorescence.

[3] = tested on: U2OS cells; details: U2OS cell line
Description: as §2
HeLa or U2OS cells were cultured in 24 well plates (4.5×10^5 cells per well) for 24 h. On the day of the experiment, the cells were incubated with 5 μM FITC-peptide in DMEM with 10% FBS at 37° C. or 4° C. for required time. The media was then removed and wells were washed with PBS (2×500 μL per well) and then detached from the plate with TrypLE Xpress (500 μL per well). PBS containing 2% bovine serum albumin (500 μL) was added to each well and cells transferred to 5 mL polystyrene FACS tubes. […]
as §3, §4

[4] = tested on: HeLa cells; experiment: Cell viability AlamarBlue assay; assay type: cell-based; details: for cytotoxicity / tolerability (in words): HeLa cells, at or up to 100 μM
Description: (§1) HeLa, U2OS or HepG2 cells were cultured in 96 well plates (2.6×10^3 cells per well) for 24 h. […] The experiments were performed in triplicate for each concentration. AlamarBlue® was then added to each well (0.5 mM, 10 μL, 10% v/v) and incubated for a further 6 h for HeLa and HepG2 cells and 24 h for U2OS cells. Cells were then analysed using a HIdex plate reader with laser excitation/emission set at 560 nm/595 nm. Fluorescence of untreated cells were used as a 100% viable control, with 1% Triton X used as a negative control, and viability of cells were calculated as a percentage of the control fluorescence values using OriginPro 2019b software.

[5] = Cell viability AlamarBlue assay; assay type: cell-based; details: human, HeLa cells, 24 h
Description: as §1

[6] = pH of 7.4; cited from earlier work

Structure (SMILES) | cellular distribution profile (in words) [2] | cytotoxicity / tolerability (in words) [4] | cell uptake relative to TP-2 (in words) ([1]; 5 μM FITC-peptide) | other results
CC[C@@H](C)[C@H](NC(=O)[C@H](CC(C)C)NC(=O)[C@@H]1CCCN1C(=O)CCCCCNC(=S)Nc1ccc(-c2c3ccc(=O)cc-3oc3cc(O)ccc23)c(C(=O)O)c1)C(=O)N[C@@H](Cc1ccc(O)cc1)C(=O)N[C@@H](CC(C)C)C(=O)N[C@@H](CNC(=O)c1ccc(C(=N)N)cc1)C(=O)N[C@@H](CC(C)C)C(=O)N[C@@H](CC(C)C)C(=O)N[C@@H](CNC(=O)c1ccc(C(=N)N)cc1)C(=O)NCC(N)=O [Am-TP-2, FITC-XPLIYLAmLLAmG] ({X1-Ahx}-PL[aIle]YL[Dap](X2)LL[Dap](X2)G-NH2) | cytoplasmic distribution profile | – | – | decrease in cellular uptake at 4° C. relative to 37° C. [1]: 30 fold; uptake at 4 hr incubation relative to 1 hr (in words) [1]: enhanced uptake; increase in uptake relative to TP-2 ([1]; 5 μM FITC-peptide): 4 fold; uptake trend (in words) [3]: enhanced uptake
CC(C)C[C@H](NC(=O)[C@H](CC(C)C)NC(=O)[C@H](CCCNC(=N)N)NC(=O)[C@H](CCCNC(=N)N)NC(=O)[C@H](CC(C)C)NC(=O)[C@H](CC(C)C)NC(=O)[C@H](CCCNC(=N)N)NC(=O)CCCCCNC(=S)Nc1ccc(-c2c3ccc(=O)cc-3oc3cc(O)ccc23)c(C(=O)O)c1)C(=O)N[C@@H](CCCNC(=N)N)C(N)=O [Pep-2, FITC-XRLLRRLLR] (HELM PEPTIDE1{[O=C(O)c1cc(NC(=S)[*:2])ccc1-c1c2ccc(=O)cc-2oc2cc(O)ccc12].[O=C(CCCCCN[*:1])[*:2]].R.L.L.R.R.L.L.R.[am]}$$$$V2.0) | – | – | – | cytotoxicity relative to Pep-1 (in words) ([4]; at 100 M (so in the source)): displaying cytotoxicity
CC[C@H](C)[C@H](NC(=O)[C@H](CC(C)C)NC(=O)[C@H](Cc1ccccc1)NC(=O)[C@H](CCC(N)=O)NC(=O)[C@H](Cc1ccc(O)cc1)NC(=O)[C@H](CCCNC(=N)N)NC(=O)[C@H](CCCNC(=N)N)NC(=O)CCNC(=O)[C@H](CCCNC(=N)N)NC(=O)[C@H](CCCNC(=N)N)NC(=O)CCCCCNC(=O)[C@H](CCCNC(=N)N)NC(=O)CCCCCNC(=S)Nc1ccc(-c2c3ccc(=O)cc-3oc3cc(O)ccc23)c(C(=O)O)c1)C(=O)N[C@@H](CCCNC(=N)N)C(=O)NCCC(=O)N[C@@H](CCCNC(=N)N)C(=O)NCCCCCC(=O)N[C@@H](CCCNC(=N)N)C(N)=O [PiP6, FITC-XRXRRBRRYQFLIRBRXR] ({X1-Ahx}-R[Ahx]RR[βAla]RRYQFLIR[βAla]R[Ahx]R-NH2) | high level of accumulation within the nucleus | – | – | time of maximum uptake ([1]; 5 μM FITC-peptide): 1 h; viability at 24 h, 30 µM ([5]; 30 μM FITC-peptide): 15%; viability at 24 h, 100 µM ([5]; 100 μM FITC-peptide): 5%
CC[C@@H](C)[C@H](NC(=O)[C@H](CC(C)C)NC(=O)[C@@H]1CCCN1C(=O)CCCCCNC(=S)Nc1ccc(-c2c3ccc(=O)cc-3oc3cc(O)ccc23)c(C(=O)O)c1)C(=O)N[C@@H](CC(C)C)C(=O)N[C@@H](CC(C)C)C(=O)N[C@@H](CCCNC(=N)N)C(=O)N[C@@H](CC(C)C)C(=O)N[C@@H](CC(C)C)C(=O)N[C@@H](CCCNC(=N)N)C(=O)NCC(N)=O [TP-1, FITC-XPLILLRLLRG] ({X1-Ahx}-PL[aIle]LLRLLRG-NH2) | extensively distributed throughout the cytoplasm | well tolerated | – | –
CC[C@@H](C)[C@H](NC(=O)[C@H](CC(C)C)NC(=O)[C@@H]1CCCN1C(=O)CCCCCNC(=S)Nc1ccc(-c2c3ccc(=O)cc-3oc3cc(O)ccc23)c(C(=O)O)c1)C(=O)N[C@@H](Cc1ccc(O)cc1)C(=O)N[C@@H](CC(C)C)C(=O)N[C@@H](CCCNC(=N)N)C(=O)N[C@@H](CC(C)C)C(=O)N[C@@H](CC(C)C)C(=O)N[C@@H](CCCNC(=N)N)C(=O)NCC(N)=O [TP-2, FITC-XPLIYLRLLRG] ({X1-Ahx}-PL[aIle]YLRLLRG-NH2) | extensively distributed throughout the cytoplasm | well tolerated | – | –
CC[C@@H](C)[C@H](NC(=O)[C@H](CC(C)C)NC(=O)[C@@H]1CCCN1C(=O)CCCCCNC(=S)Nc1ccc(-c2c3ccc(=O)cc-3oc3cc(O)ccc23)c(C(=O)O)c1)C(=O)N[C@@H](Cc1ccc(O)cc1)C(=O)N[C@@H](CC(C)C)C(=O)N[C@H](CCCCN)C(=O)N[C@@H](CC(C)C)C(=O)N[C@@H](CC(C)C)C(=O)N[C@H](CCCCN)C(=O)NCC(N)=O [TP-3, FITC-XPLIYLKLLKG] ({X1-Ahx}-PL[aIle]YL[dK]LL[dK]G-NH2) | – | – | no difference in cell uptake | –
CC[C@@H](C)[C@H](NC(=O)[C@H](CC(C)C)NC(=O)[C@@H]1CCCN1C(=O)CCCCCNC(=S)Nc1ccc(-c2c3ccc(=O)cc-3oc3cc(O)ccc23)c(C(=O)O)c1)C(=O)N[C@@H](Cc1ccc(O)cc1)C(=O)N[C@@H](CC(C)C)C(=O)N[C@H](CCCNC(N)=O)C(=O)N[C@@H](CC(C)C)C(=O)N[C@@H](CC(C)C)C(=O)N[C@H](CCCNC(N)=O)C(=O)NCC(N)=O [TP-4, FITC-XPLIYLCitLLCitG] ({X1-Ahx}-PL[aIle]YL[dCit]LL[dCit]G-NH2) | – | – | reduction in cellular uptake | –
CC[C@@H](C)[C@H](NC(=O)[C@H](CC(C)C)NC(=O)[C@@H]1CCCN1C(=O)CCCCCNC(=S)Nc1ccc(-c2c3ccc(=O)cc-3oc3cc(O)ccc23)c(C(=O)O)c1)C(=O)N[C@@H](Cc1ccc(O)cc1)C(=O)N[C@@H](CC(C)C)C(=O)N[C@H](CCCNC(=N)N)C(=O)N[C@@H](CC(C)C)C(=O)N[C@@H](CC(C)C)C(=O)N[C@H](CCCNC(=N)N)C(=O)NCC(N)=O [TP-5, FITC-XPLIYLrLLrG] ({X1-Ahx}-PL[aIle]YL[dR]LL[dR]G-NH2) | – | – | further reduction in uptake | cell uptake relative to TP peptides containing L-Arg (TP-1 and TP-2) (in words) ([1]; 5 μM FITC-peptide): enhanced uptake
N=C(N)NCCC[C@H](NC(=O)[C@H](CCCNC(=N)N)NC(=O)[C@H](CCCNC(=N)N)NC(=O)[C@H](CCC(N)=O)NC(=O)[C@H](CCCNC(=N)N)NC(=O)[C@H](CCCNC(=N)N)NC(=O)[C@H](CCCCN)NC(=O)[C@H](CCCCN)NC(=O)[C@H](CCCNC(=N)N)NC(=O)CCCCCNC(=S)Nc1ccc(-c2c3ccc(=O)cc-3oc3cc(O)ccc23)c(C(=O)O)c1)C(N)=O [Tat, FITC-XRKKRRQRRR] | accumulating in puncta | moderate levels of toxicity | – | time of maximum uptake ([1]; 5 μM FITC-peptide): 1 h
N=C(N)NCCC[C@H](N)C(=O)O [arginine] | – | – | – | Log D or c Log D [6]: approximately −3.5

— patent US20260226103A1, “MODIFIED AMINO ACIDS AND USES THEREOF” (priority 2022, published 2026)
